Experimental data reported in US20230174951A1, “PHENOL-RICH GRAPES” (THE STATE OF ISRAEL, MINISTRY OF AGRICULTURE & RURAL …, priority 2020, published 2023).

Tests used:
[1] = test system: AroG*+STS28 (Line 16) cells; test: Effect of Phe and p-CA concentrations on cell growth; assay type: cell-based, Vitis vinifera
Experimental: The concentrations of Phe and p-CA chosen for the feeding experiments were those in which cell viability was not affected, but cell growth was slower. To compare the growth rate, the fresh Weight (FW) of the cells per ml growth media was measured at day 7 of growth. […] Even though the viability of the treated with 0.5-5 mM Phe and 0.1-0.3 mM p-CA was similar, their growth pattern differed with formation of larger clumps in the liquid media (FIG. 6C).

| Structure (SMILES) | weight of treated cells ([1]; 1, 2 and 5 mM, day 7) | cell growth ([1]; 0.3 mM, compared to cells in 0.2% ethanol) | water solubility (Water solubility) |
| --- | --- | --- | --- |
| N[C@@H](Cc1ccccc1)C(=O)O [Phe, Phenylalanine] | weighed significantly less | – | – |
| O=C(O)/C=C/c1ccc(O)cc1 [p-Coumaric acid, p-coumaric acid] | – | slower growth | not water soluble |
